According to ChEMBL document CHEMBL3714768 (2012):

Legend:
[1] = molecular target: Serine/threonine-protein phosphatase PP1-alpha catalytic subunit (Oryctolagus cuniculus, UniProt P62139); assay: Inhibition of purified rabbit skeletal muscle protein phosphatase 1 using DiFMUP substrate incubated for 30 mins
[2] = Selectivity index, ratio of IC50 for purified human red blood cell PP2A (unknown origin) to IC50 for purified rabbit skeletal muscle PP1
MCF7 = assay: Cytotoxicity against human MCF7 cells by fluorescent Calcein-AM assay; format: functional, cell-based
[3] = Cytotoxicity against human DU145 cells by fluorescent Calcein-AM assay; format: functional, cell-based; conditions: du-145
[4] = Cytotoxicity against human HCT116 cells by fluorescent Calcein-AM assay; format: functional, cell-based; conditions: hct-116

Sequence of Serine/threonine-protein phosphatase PP1-alpha catalytic subunit (P62139 whole entry): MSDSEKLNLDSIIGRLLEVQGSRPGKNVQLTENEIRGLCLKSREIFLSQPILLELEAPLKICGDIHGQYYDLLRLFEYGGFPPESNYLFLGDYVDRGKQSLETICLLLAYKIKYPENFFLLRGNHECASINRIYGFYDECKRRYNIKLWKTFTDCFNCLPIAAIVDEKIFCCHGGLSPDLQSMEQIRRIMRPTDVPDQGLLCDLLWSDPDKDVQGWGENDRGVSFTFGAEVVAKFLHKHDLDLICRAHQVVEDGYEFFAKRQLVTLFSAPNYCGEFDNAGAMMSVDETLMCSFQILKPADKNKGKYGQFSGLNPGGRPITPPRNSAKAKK

SMILES | IC50 [1] | Ratio IC50 [2] | IC50 (MCF7) | IC50 [3] | IC50 [4]
CCC(/C=C/C(=O)O)=C\C(=O)C[C@H](C)C[C@@H](C)CC[C@H](O)[C@H](C)C(=O)C[C@@H](O)[C@H](C)[C@@H](C)OC(=O)C[C@@H](O)C1=C(C)C(=O)OC1=O | 28 µM |  |  |  | 
CCC(/C=C/C(=O)O)=C\CC[C@H](C)C[C@@H](C)CC[C@H](O)[C@H](C)C(=O)C[C@@H](O)[C@H](C)[C@@H](C)OC(=O)C[C@@H](O)C1=C(C)C(=O)OC1=O |  | 4 | Not Active | Not Active | Not Active
CC/C(=C\CC[C@H](C)C[C@@H](C)CC[C@H](O)[C@H](C)C(=O)C[C@@H](O)[C@H](C)[C@@H](C)OC(=O)C[C@@H](O)C1=C(C)C(=O)OC1=O)C(O)CC(=O)O (some centres undefined) |  | 3.8 | Not Active | Not Active | Not Active
CCC(/C=C/C(=O)O)=C\[C@H](O)C[C@H](C)C[C@@H](C)CC[C@H](O)[C@H](C)C(=O)C[C@@H](O)[C@H](C)[C@@H](C)OC(=O)C[C@@H](O)C1=C(C)C(=O)OC1=O |  | 3.8 |  |  | 
CCC(/C=C/C(=O)O)=C\[C@@H](O)C[C@H](C)C[C@@H](C)CC[C@H](O)[C@H](C)C(=O)C[C@@H](O)[C@H](C)[C@@H](C)OC(=O)C[C@@H](O)C1=C(C)C(=O)OC1=O |  | 4.5 | Not Active | Not Active | Not Active
